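48-hour exposure; five concentrations; linearly interpolated endpoints. At the GI50, growth is halved. TGI is the concentration that stops growth completely.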
Columns and labels:
Assay in all cases: NCI tumour cell line growth inhibition, 48 h
[1] = test system: BT-549 breast
[2] = test system: HCC-2998 colon
[3] = test system: DU-145 prostate
[4] = test system: M14 melanoma
[5] = test system: HL-60(TB) leukemia
[6] = test system: TK-10 renal
[7] = test system: ACHN renal
[8] = test system: UACC-257 melanoma
[9] = test system: K-562 leukemia
[10] = test system: NCI-H522 lung
[11] = test system: SNB-19 CNS
[12] = test system: 786-0 renal
[13] = test system: HOP-62 NSCLC
[14] = test system: NCI-H226 lung
[15] = test system: PC-3 prostate
[16] = test system: COLO 205 colon
[17] = test system: EKVX NSCLC
[18] = test system: OVCAR-8 ovarian
[19] = test system: RXF 393 renal
[20] = test system: HOP-92 NSCLC
[21] = test system: SN12C renal
[22] = test system: LOX IMVI melanoma
[23] = test system: A498 renal
[24] = test system: KM12 colon
[25] = test system: UACC-62 melanoma
[26] = test system: HCT-15 colon
[27] = test system: A549 NSCLC
[28] = test system: CAKI-1 renal
[29] = test system: MDA-MB-231 breast
[30] = test system: SF-268 CNS
[31] = test system: OVCAR-4 ovarian
[32] = test system: HT29 colon
[33] = test system: SNB-75 CNS
[34] = test system: SK-MEL-2 melanoma
[35] = test system: OVCAR-5 ovarian
[36] = test system: IGROV1 ovarian
[37] = test system: RPMI-8226 leukemia
[38] = test system: MDA-MB-435
[39] = test system: SF-539 CNS
[40] = test system: MCF7 breast
[41] = test system: NCI-H460 lung
[42] = test system: SK-MEL-28 melanoma
[43] = test system: MALME-3M melanoma
[44] = test system: SR leukemia
[45] = test system: SK-MEL-5 melanoma
[46] = test system: HS 578T breast
[47] = test system: HCT-116 colon
[48] = test system: CCRF-CEM leukemia
[49] = test system: T-47D breast
[50] = test system: MOLT-4 leukemia
[51] = test system: NCI-H23 lung
[52] = test system: NCI/ADR-RES ovarian
[53] = test system: U251 CNS
[54] = test system: SW-620 colon
[55] = test system: SK-OV-3 ovarian
[56] = test system: SF-295 CNS
[57] = test system: UO-31 renal

`Fc1ccc(-c2cc3nc(C(Cl)Cl)nc(-c4ccco4)n3n2)cc1` showed a GI50 [1] of 35300 nM, a TGI [1] of over 100000 nM and a GI50 [2] of 400 nM. For the same compound, the TGI [2] was 1650 nM, the GI50 [3] was 303 nM and the TGI [3] was 954 nM. It also gave a GI50 [4] of over 100000 nM, a TGI [4] of over 100000 nM and a GI50 [5] of 300 nM. The GI50 [6] was 3540 nM, the TGI [6] was 7500 nM and the GI50 [7] was 296 nM. For the same compound, the TGI [7] was 1340 nM, the GI50 [8] was 3530 nM and the TGI [8] was 19600 nM. It also gave a GI50 [9] of 1790 nM, a TGI [9] of over 100000 nM and a GI50 [10] of over 87900 nM. For the same compound, the TGI [10] was over 100000 nM, the GI50 [11] was 541 nM and the TGI [11] was 5810 nM. The GI50 [12] was 2770 nM, the TGI [12] was 27500 nM and the GI50 [13] was 504 nM. The TGI [13] was 2840 nM, the GI50 [14] was over 89500 nM and the TGI [14] was over 100000 nM. The GI50 [15] was 727 nM, the TGI [15] was 3880 nM and the GI50 [16] was 624 nM. The TGI [16] was 2480 nM, the GI50 [17] was 1280 nM and the TGI [17] was 4860 nM. The GI50 [18] was 809 nM, the TGI [18] was over 100000 nM and the GI50 [19] was 413 nM. It also gave a TGI [19] of 2510 nM, a GI50 [20] of 541 nM and a TGI [20] of 3370 nM. The GI50 [21] was over 100000 nM, the TGI [21] was over 100000 nM and the GI50 [22] was over 100000 nM. The TGI [22] was over 100000 nM, the GI50 [23] was 1210 nM and the TGI [23] was 2620 nM. For the same compound, the GI50 [24] was 877 nM, the TGI [24] was 3660 nM and the GI50 [25] was 3610 nM. For the same compound, the TGI [25] was over 53800 nM, the GI50 [26] was 486 nM and the TGI [26] was 16400 nM. For the same compound, the GI50 [27] was 770 nM, the TGI [27] was 5370 nM and the GI50 [28] was 948 nM. For the same compound, the TGI [28] was 4360 nM, the GI50 [29] was 368 nM and the TGI [29] was 2330 nM. For the same compound, the GI50 [30] was 1240 nM, the TGI [30] was 8160 nM and the GI50 [31] was 2620 nM. For the same compound, the TGI [31] was 17500 nM, the GI50 [32] was 312 nM and the TGI [32] was 1710 nM. For the same compound, the GI50 [33] was 638 nM, the TGI [33] was 3990 nM and the GI50 [34] was 5360 nM. It also gave a TGI [34] of 20400 nM, a GI50 [35] of 1320 nM and a TGI [35] of 6700 nM. The GI50 [36] was 11600 nM, the TGI [36] was over 100000 nM and the GI50 [37] was 481 nM. The TGI [37] was 4030 nM, the GI50 [38] was 1540 nM and the TGI [38] was 6820 nM. It also gave a GI50 [39] of 832 nM, a TGI [39] of 3710 nM and a GI50 [40] of 273 nM. It also gave a TGI [40] of 3240 nM, a GI50 [41] of 217 nM and a TGI [41] of 533 nM. For the same compound, the GI50 [42] was 2460 nM, the TGI [42] was 6460 nM and the GI50 [43] was over 100000 nM. It also gave a TGI [43] of over 100000 nM, a GI50 [44] of 17800 nM and a TGI [44] of over 100000 nM. It also gave a GI50 [45] of over 100000 nM, a TGI [45] of over 100000 nM and a GI50 [46] of 1450 nM. The TGI [46] was 4910 nM, the GI50 [47] was 310 nM and the TGI [47] was 1100 nM. The GI50 [48] was over 100000 nM, the TGI [48] was over 100000 nM and the GI50 [49] was 1010 nM. For the same compound, the TGI [49] was 6710 nM, the GI50 [50] was over 47400 nM and the TGI [50] was over 100000 nM. The GI50 [51] was 2440 nM, the TGI [51] was over 58000 nM and the GI50 [52] was 562 nM. The TGI [52] was 6040 nM, the GI50 [53] was 309 nM and the TGI [53] was 2700 nM. For the same compound, the GI50 [54] was 402 nM, the TGI [54] was 3550 nM and the GI50 [55] was 2880 nM. For the same compound, the TGI [55] was over 49400 nM, the GI50 [56] was 663 nM and the TGI [56] was 4080 nM. It also gave a GI50 [57] of 1320 nM and a TGI [57] of 5780 nM.

— PubChem BioAssay (NCI)
